Experimental findings from US4110327A, “2,3 Diketo-piperazinocarbonylamino alkanoic acids and derivatives” (Toyama Chemical Co., Ltd., priority 1974, dated 1978) are described below.

Each structure is given as a SMILES string. ≈ marks a conversion by molar mass, not a printed value.

Common to all, as to test: MIC against standard strain, plate method
Common to all, as to type: cell-based

One assay relates to Escherichia coli NIHJ. The following applies: unit assumed. The protocol:
(§1) The minimum inhibitory concentrations (MIC) was determined by the plate method disclosed in "Chemotherapy" (Japan), Vol. 16, (1968), pages 98 - 99. The culture medium used was a Heart infusion agar (pH 7.4). The number of the cells per plate used in the inoculum as 10^4 (10^6 cells/ml).

Another assay relates to Klebsiella pneumoniae. The following applies: unit assumed. The protocol:
as §1

Another assay has as its system Proteus vulgaris 3027. Conditions: Proteus vulgaris 3027, standard strain; unit assumed. The protocol:
as §1

The test system of assay [1] is Pseudomonas aeruginosa I.F.O. Conditions: unit assumed. The protocol: as §1
The subject of assay [2] is Staphylococcus aureus 209p. Conditions: unit assumed. The protocol:
as §1

The term MIC denotes the least concentration at which growth counts as inhibited. Low readings indicate a more susceptible organism, high ones a less susceptible organism. `CC1(C)SC2C(NC(=O)C(NC(=O)N3CCNC(=O)C3=O)c3ccccc3)C(=O)N2C1C(=O)O` (stereo not shown) [compound 59]: the MIC is less than 1.57 µg/mL in the assay with Escherichia coli NIHJ; 200 µg/mL (≈ 409 µM) with Klebsiella pneumoniae; 3.13 µg/mL (≈ 6.39 µM) in the assay on Proteus vulgaris 3027; 25 µg/mL (≈ 51.1 µM) in assay [1]; less than 1.57 µg/mL in assay [2].
Turning to `C=CC(C)N1CCN(C(=O)N[C@@H](C(=O)N[C@@H]2C(=O)N3[C@@H]2SC(C)(C)[C@@H]3C(=O)O)c2ccccc2)CC1=O` (single isomer, unassigned) [compound 26], the minimum inhibitory concentration (MIC) is less than 1.57 µg/mL with Escherichia coli NIHJ; 25 µg/mL (≈ 47.2 µM) against Klebsiella pneumoniae; 12.5 µg/mL (≈ 23.6 µM) against Proteus vulgaris 3027; 25 µg/mL (≈ 47.2 µM) in assay [1]; less than 1.57 µg/mL in assay [2].
As to `CCN1CCN(C(=S)NC(C(=O)NC2C(=O)N3C(C(=O)O)=C(COC(C)=O)CSC23)c2ccccc2)C(=O)C1=O` (stereo not shown) [compound 67], the MIC against Escherichia coli NIHJ was less than 0.79 µg/mL; in the assay with Klebsiella pneumoniae it was 3.13 µg/mL (≈ 5.31 µM); in the assay with Proteus vulgaris 3027, 12.5 µg/mL (≈ 21.2 µM); in assay [1], 100 µg/mL (≈ 170 µM); in assay [2], 6.25 µg/mL (≈ 10.6 µM).
In the same order, the values of `CCCCN1C(=O)CN(C(=O)N[C@@H](C(=O)N[C@@H]2C(=O)N3[C@@H]2SC(C)(C)[C@@H]3C(=O)O)c2ccccc2)CC1C` (stereo partly shown) [compound 22] are less than 1.57 µg/mL, 12.5 µg/mL (≈ 22.9 µM), 6.25 µg/mL (≈ 11.5 µM), 50 µg/mL (≈ 91.6 µM) and less than 1.57 µg/mL.
In the same order, the values of `CC1(C)S[C@@H]2[C@H](NC(=O)[C@H](NC(=O)N3CCN(C(=O)c4ccc(Cl)cc4Cl)CC3=O)c3ccccc3)C(=O)N2[C@H]1C(=O)O` [compound 10] are less than 1.57 µg/mL, 6.25 µg/mL (≈ 9.64 µM), 3.13 µg/mL (≈ 4.83 µM), 100 µg/mL (≈ 154 µM) and less than 1.57 µg/mL.
On to `CN1CCN(C(=O)NC(C(=O)NC2C(=O)N3C2SC(C)(C)C3C(=O)O)C2=CCC=CC2)C(=O)C1=O` (stereo not shown) [compound 57], for which the MIC against Escherichia coli NIHJ was less than 0.79 µg/mL; in the assay on Klebsiella pneumoniae, 12.5 µg/mL (≈ 24.7 µM); against Proteus vulgaris 3027, 3.13 µg/mL (≈ 6.19 µM); in assay [1], 12.5 µg/mL (≈ 24.7 µM); in assay [2], less than 0.79 µg/mL.
With `CC(C)N1CCN(C(=O)N[C@@H](C(=O)N[C@@H]2C(=O)N3[C@@H]2SC(C)(C)[C@@H]3C(=O)O)c2ccccc2)CC1=O` [compound 20], the MIC against Escherichia coli NIHJ is less than 1.57 µg/mL; in the assay with Klebsiella pneumoniae, 25 µg/mL (≈ 48.3 µM); with Proteus vulgaris 3027, 3.13 µg/mL (≈ 6.05 µM); in assay [1], 12.5 µg/mL (≈ 24.1 µM); in assay [2] it was 3.13 µg/mL (≈ 6.05 µM).
With `CCCCCCCCN1CCN(C(=O)N[C@@H](C(=O)N[C@@H]2C(=O)N3[C@@H]2SC(C)(C)[C@@H]3C(=O)OCOC)c2ccccc2)C(=O)C1=O` (single isomer, unassigned) [compound 51], the MIC with Escherichia coli NIHJ was less than 0.4 µg/mL; against Klebsiella pneumoniae it was less than 0.4 µg/mL; in the assay on Proteus vulgaris 3027 it was less than 0.4 µg/mL; in assay [1], 12.5 µg/mL (≈ 19.4 µM); in assay [2] it was less than 0.4 µg/mL.
With `CC(=O)OCCN1CCN(C(=O)N[C@@H](C(=O)N[C@@H]2C(=O)N3[C@@H]2SC(C)(C)[C@@H]3C(=O)O)c2ccccc2)C(=O)C1=O` (single isomer, unassigned) [compound 41], the MIC in the assay on Escherichia coli NIHJ was less than 1.57 µg/mL; with Klebsiella pneumoniae it was 6.25 µg/mL (≈ 10.9 µM); with Proteus vulgaris 3027 it was less than 1.57 µg/mL; in assay [1], 25 µg/mL (≈ 43.4 µM); in assay [2], less than 1.57 µg/mL.
For the molecule `CCN1CC(C)N(C(=O)NC(C(=O)NC2C(=O)N3C(C(=O)O)=C(CSc4nnnn4C)CSC23)c2ccccc2)C(=O)C1=O` (stereo not shown) [compound 66], the minimum inhibitory concentration (MIC) in the assay with Escherichia coli NIHJ is less than 0.79 µg/mL; in the assay with Klebsiella pneumoniae it was 0.79 µg/mL (≈ 1.23 µM); against Proteus vulgaris 3027, less than 1.57 µg/mL; in assay [1] it was 25 µg/mL (≈ 38.8 µM); in assay [2], less than 0.79 µg/mL.
Consider `CN1CCN(C(=O)N[C@@H](C(=O)N[C@@H]2C(=O)N3[C@@H]2SC(C)(C)[C@@H]3C(=O)O)c2ccccc2)CC1=O` [compound 17], for which the MIC with Escherichia coli NIHJ is less than 1.57 µg/mL; against Klebsiella pneumoniae, 50 µg/mL (≈ 102 µM); against Proteus vulgaris 3027, 6.25 µg/mL (≈ 12.8 µM); in assay [1], 12.5 µg/mL (≈ 25.5 µM); in assay [2], less than 1.57 µg/mL.
